Data reported in article PMC12564302, “Discovery of N-Hydroxypyridinedione-Based Inhibitors of HBV RNase H: Design, Synthesis, and Extended SAR Studies” (International Journal of Molecular Sciences, 2025).
Where two headings read alike, the source gives them in different places.

Key:
[1] = tested on: HBV replication in HepDES19 cells; experiment: qPCR HBV replication inhibition assay; format: cell-based, HBV genotype D; settings: for EC50: 72 h, (+) polarity DNA strand, pH 7.4, read-out: EC50
Description: (§1) HepDES19 cells are a HepG2 cell-line derivative that has been stably transfected with an HBV genotype D genome containing a tetracycline repressible promoter. HepDES19 cells were maintained on collagen-coated plates in Dulbecco’s modified Eagle’s medium (DMEM/F12) (Cytiva Life Sciences, Marlborough, MA, USA) supplemented with 10% fetal bovine serum (FBS), streptomycin (100 µg/mL), and penicillin (100 IU/mL), and incubated at 37 °C with 5% CO2 and saturating humidity. Cells were cultured with 1 µg/mL tetracycline to inhibit the expression of the stably integrated HBV genome, and HBV replication was activated upon removal of tetracycline from the culture medium.
HBV replication inhibition in HepDES19 cells was assessed using a strand-preferential quantitative PCR assay as previously described. HepDES19 cells were seeded in 96 well plates at 4 × 10^4 cells/well for 48 h followed by the addition of serial diluted compound with a final concentration of 1% DMSO for 72 h, after which cells were lysed, and qPCR was performed as described in Li et al.. Effective concentration 50% (EC50) values were calculated from data for the (+) polarity DNA strand data using GraphPad Prism version 10’s four-parameter log (inhibitor) versus response algorithm, with the bottom value set to zero. Three or more replicate assays were performed on different days.

[2] = Parallel artificial membrane permeability assay; format: in vitro ADME; settings: PAMPA, pH 7.4, PAMPA
Description: The evaluation of apparent passive permeability (Papp) at pH 7.4 was performed using a donor/acceptor cassette (Innovative Laboratory Products, Phoenix, AZ, USA and Sigma Aldrich, Burlington, MA, USA), which simulates the apical and basolateral sides of the small intestine epithelium, as previously described. An artificial membrane made of 1% w/v lecithin/dodecane was applied to the poly (vinylidene fluoride) (PVDF) membrane filter and allowed to dry. Following drying, compounds (200 µM) were diluted in buffer at pH 7.4 and added to the donor side of the cassette. The same pH buffer was added on the acceptor side of the cassette, after which it was assembled and incubated at room temperature with shaking at 250 rpm for 2 h, before reading the absorbance of 100 µL from the acceptor well on a plate reader between 230 and 700 nm. The Papp (cm/s) values for compounds were determined by normalizing to the compound absorbance at equilibrium using the peak absorbance point for each compound, buffer volume, incubation time, and membrane porosity. Two or more replicate assays were conducted on different days.

MTS cytotoxicity assay = format: cell-based; settings: human, HepDES19 cells, pH 7.4
Description: as §1
Cell viability was assessed using the CellTiter 96^TM Aqueous Non-Radioactive Cell Proliferation assay (MTS) (Promega, Madison, WI, USA) as described previously. HepDES19 cells were seeded in 96 well plates at 1 × 10^4 cells/well for 48 h. Cells were then incubated with serial diluted compound, with a final concentration of 1% DMSO, for 72 h. Following compound incubation, background absorbance values were subtracted, and the data were converted into percent cell viability. The cytotoxic concentration 50% (CC50) values were calculated using GraphPad Prism’s four-parameter log (inhibitor) versus response algorithm, with the bottom value set to zero. Three or more replicate assays were performed on different days.

Solubility limit assay = format: physicochemical; settings: DMEM-F12 without phenol red with 10% FBS, pH 7.4, plasma or biological fluid, kinetic from dmso stock
Description: Solubility limits of compounds were tested as previously reported in DMEM-F12 without phenol red (Gibco, Grand Island, NY, USA) but with the media supplemented with 10% FBS (pH 7.4) to mimic cell culture experiments. In a 384-well optically clear plate, compounds were serially diluted in pH 7.4 buffer (upper limit 200 µM, DMSO 1%) then read at 620 nm. Solubility limits were determined by plotting compound concentration (µM) against optical density (OD) and identifying an inflexion point. The inflexion point is defined by a substantial increase in OD brought on by increasing turbidity, and the compound concentration at this point is known as the solubility limit. Each compound had at least two replicate assays performed on different days.

[3] = Hepatitis B virus, HepDES19, 72 h, pH 7.4, HepDES19 cells
[4] = pH 7.4, 200 µM, 2 h, read-out: Papp
[5] = pH 7.4, read-out: Papp Interpretation
[6] = pH 7.4, DMEM-F12 with 10% FBS, 1% DMSO, upper limit 200 µM, read-out: Solubility Limit
[7] = pH 7.4, read-out: Solubility Limit Interpretation

Compound | anti-HBV activity (in words) ([1]; HepDES19 cells) | EC50 ([1]; HepDES19 cells) | EC50 [1, 3] | Papp at 2 h, 200 µM [2, 4] | Papp at 2 h, 200 µM [2, 5] | CC50 at 72 h (MTS cytotoxicity assay) | solubility (Solubility limit assay; [6]) | solubility (Solubility limit assay; [7])
2-amino-4-(2-bromophenoxy)-6-iminopyrimidin-1(6H)-ol [Compound 44] | inactive against HBV | > 100 µM |  |  |  |  |  | 
CC(=Nc1ccccc1F)c1c(C)cc(=O)n(O)c1O [Compound 21, 5-(1-((2-fluorophenyl)imino)ethyl)-1,6-dihydroxy-4-methylpyridin-2(1H)-one] |  |  | 2.2 ± 0.5 µM | 5.72 ×10⁻⁶ cm/s | > 1 ×10⁻⁶ cm/s | 86.3 ± 10.2 µM | > 200 µM | > 100 µM
CC(=Nc1ccccc1Cl)c1c(C)cc(=O)n(O)c1O [Compound 23, 5-(1-((2-chlorophenyl)imino)ethyl)-1,6-dihydroxy-4-methylpyridin-2(1H)-one] |  |  | 2.42 ± 1 µM | 2.83 ×10⁻⁶ cm/s | > 1 ×10⁻⁶ cm/s | 76.8 ± 5.9 µM | > 200 µM | > 100 µM
CC(=Nc1ccc(Cl)c(Cl)c1)c1c(C)cc(=O)n(O)c1O [Compound 24, 5-(1-((3,4-dichlorophenyl)imino)ethyl)-1,6-dihydroxy-4-methylpyridin-2(1H)-one] |  |  | 2.17 ± 0.8 µM | 2.24 ×10⁻⁶ cm/s | > 1 ×10⁻⁶ cm/s | 69 µM | > 200 µM | > 100 µM
CC(=Nc1ccccc1Br)c1c(C)cc(=O)n(O)c1O [Compound 25, 5-(1-((2-bromophenyl)imino)ethyl)-1,6-dihydroxy-4-methylpyridin-2(1H)-one] |  |  | 4.53 ± 2.5 µM | 3.12 ×10⁻⁶ cm/s | > 1 ×10⁻⁶ cm/s | 45.8 ± 4.6 µM | > 200 µM | > 100 µM
CC(=Nc1ccc(F)cc1F)c1c(C)cc(=O)n(O)c1O [Compound 26, 5-(1-((2,4-difluorophenyl)imino)ethyl)-1,6-dihydroxy-4-methylpyridin-2(1H)-one] |  |  | 2.83 ± 1.1 µM | 3.81 ×10⁻⁶ cm/s | > 1 ×10⁻⁶ cm/s | 54.1 ± 27.7 µM | > 200 µM | > 100 µM
CC(=Nc1cc(F)ccc1F)c1c(C)cc(=O)n(O)c1O [Compound 27, 5-(1-((2,5-difluorophenyl)imino)ethyl)-1,6-dihydroxy-4-methylpyridin-2(1H)-one] |  |  | 1.97 ± 0.6 µM | 2.4 ×10⁻⁶ cm/s | > 1 ×10⁻⁶ cm/s | 58.4 ± 21.9 µM | > 200 µM | > 100 µM
CC(=Nc1c(F)cccc1F)c1c(C)cc(=O)n(O)c1O [Compound 28, 5-(1-((2,6-difluorophenyl)imino)ethyl)-1,6-dihydroxy-4-methylpyridin-2(1H)-one] |  |  | 2.73 ± 1 µM | 2.48 ×10⁻⁶ cm/s | > 1 ×10⁻⁶ cm/s | 52.6 ± 20.5 µM | > 200 µM | > 100 µM
CC(=Nc1ccc(F)c(Cl)c1)c1c(C)cc(=O)n(O)c1O [Compound 29, 5-(1-((3-chloro-4-fluorophenyl)imino)ethyl)-1,6-dihydroxy-4-methylpyridin-2(1H)-one] |  |  | 3.25 ± 1 µM | 3.65 ×10⁻⁶ cm/s | > 1 ×10⁻⁶ cm/s | 70.8 ± 18.4 µM | > 200 µM | > 100 µM
